# Source: publication PMC9402538, “Rational design of a sensitivity-enhanced tracer for discovering efficient APC–Asef inhibitors” (Nature Communications, 2022)
# Where a SMILES comes first, the peptide text is derived from it. The star is where a group is joined. Benzoyl(4-OMe) = COc1ccc(C(=O)*)cc1
# Molecular target: T1, APC (303–739) (Homo sapiens, UniProt P25054)
# T1 sequence (P25054 303-739): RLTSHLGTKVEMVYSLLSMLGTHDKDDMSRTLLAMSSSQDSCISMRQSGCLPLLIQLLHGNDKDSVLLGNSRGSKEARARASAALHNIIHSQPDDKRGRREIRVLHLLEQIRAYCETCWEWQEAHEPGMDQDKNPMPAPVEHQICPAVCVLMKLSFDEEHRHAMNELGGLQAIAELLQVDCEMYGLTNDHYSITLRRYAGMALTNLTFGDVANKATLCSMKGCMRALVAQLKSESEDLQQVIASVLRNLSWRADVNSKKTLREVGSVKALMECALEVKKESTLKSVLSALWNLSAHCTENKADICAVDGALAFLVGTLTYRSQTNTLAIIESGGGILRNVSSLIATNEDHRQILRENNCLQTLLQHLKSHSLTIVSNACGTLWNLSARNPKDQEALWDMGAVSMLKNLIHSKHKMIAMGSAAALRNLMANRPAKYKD
# Assay: FP competitive assay using tracer 7
# Type: binding
# Method in brief: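 Peptide dilutions were first incubated 1 h at room temperature with APC (303–739) in HEPES pH 7.5 buffer containing 300 mM NaCl, EDTA and DTT. Added FITC tracer 7 (400 nM stock) displaced over a further 1.5 h before polarization reading. IC50 values came from nonlinear regression fits of triplicate data.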
structure (smiles),measurement,setting,value
COc1ccc(C(=O)N[C@@H](C)C(=O)NCC(=O)N[C@@H](CCC(=O)O)C(=O)N[C@@H](CO)C(=O)N[C@@H](CC(C)C)C(=O)N[C@@H](Cc2ccc(O)cc2)C(=O)N[C@@H](CCC(=O)O)C(N)=O)cc1 [MAI-516] ({Benzoyl(4-OMe)}-AGESLYE-NH2),inhibition at 0.0002 µM,"Conc. 0.0002 μM, individual repeats, Fig3b, read-out: %inhibition",0.5%
same,inhibition at 0.0005 µM,"Conc. 0.0005 μM, individual repeats, Fig3b, read-out: %inhibition",-0.4%
same,inhibition at 0.001 µM,"Conc. 0.001 μM, individual repeats, Fig3b, read-out: %inhibition",0.3%
same,inhibition at 0.002 µM,"Conc. 0.002 μM, individual repeats, Fig3b, read-out: %inhibition",0.4%
same,inhibition at 0.0024 µM,"Conc. 0.0024 μM, individual repeats, Fig3b, read-out: %inhibition",2.8%
same,inhibition at 0.0039 µM,"Conc. 0.0039 μM, individual repeats, Fig3b, read-out: %inhibition",3.1%
same,inhibition at 0.0049 µM,"Conc. 0.0049 μM, individual repeats, Fig3b, read-out: %inhibition",6.1%
same,inhibition at 0.006 µM,"Conc. 0.006 μM, individual repeats, Fig3b, read-out: %inhibition",3.8%
same,inhibition at 0.0078 µM,"Conc. 0.0078 μM, individual repeats, Fig3b, read-out: %inhibition",6.6%
same,inhibition at 0.0098 µM,"Conc. 0.0098 μM, individual repeats, Fig3b, read-out: %inhibition",13.7%
same,inhibition at 0.012 µM,"Conc. 0.012 μM, individual repeats, Fig3b, read-out: %inhibition",8.8%
same,inhibition at 0.0156 µM,"Conc. 0.0156 μM, individual repeats, Fig3b, read-out: %inhibition",19.4%
same,inhibition at 0.0195 µM,"Conc. 0.0195 μM, individual repeats, Fig3b, read-out: %inhibition",28.4%
same,inhibition at 0.024 µM,"Conc. 0.024 μM, individual repeats, Fig3b, read-out: %inhibition",22.1%
same,inhibition at 0.0313 µM,"Conc. 0.0313 μM, individual repeats, Fig3b, read-out: %inhibition",44%
same,inhibition at 0.0391 µM,"Conc. 0.0391 μM, individual repeats, Fig3b, read-out: %inhibition",48.7%
same,inhibition at 0.049 µM,"Conc. 0.049 μM, individual repeats, Fig3b, read-out: %inhibition",44.6%
same,inhibition at 0.0625 µM,"Conc. 0.0625 μM, individual repeats, Fig3b, read-out: %inhibition",65.8%
same,inhibition at 0.0781 µM,"Conc. 0.0781 μM, individual repeats, Fig3b, read-out: %inhibition",67.8%
same,inhibition at 0.098 µM,"Conc. 0.098 μM, individual repeats, Fig3b, read-out: %inhibition",67.3%
same,inhibition at 0.125 µM,"Conc. 0.125 μM, individual repeats, Fig3b, read-out: %inhibition",80.6%
same,inhibition at 0.1563 µM,"Conc. 0.1563 μM, individual repeats, Fig3b, read-out: %inhibition",82%
same,inhibition at 0.195 µM,"Conc. 0.195 μM, individual repeats, Fig3b, read-out: %inhibition",81.2%
same,inhibition at 0.25 µM,"Conc. 0.25 μM, individual repeats, Fig3b, read-out: %inhibition",89.6%
same,inhibition at 0.3125 µM,"Conc. 0.3125 μM, individual repeats, Fig3b, read-out: %inhibition",90.7%
same,inhibition at 0.391 µM,"Conc. 0.391 μM, individual repeats, Fig3b, read-out: %inhibition",89.5%
same,inhibition at 0.5 µM,"Conc. 0.5 μM, individual repeats, Fig3b, read-out: %inhibition",95.1%
same,inhibition at 0.625 µM,"Conc. 0.625 μM, individual repeats, Fig3b, read-out: %inhibition",96%
same,inhibition at 0.781 µM,"Conc. 0.781 μM, individual repeats, Fig3b, read-out: %inhibition",94.6%
same,inhibition at 1 µM,"Conc. 1 μM, individual repeats, Fig3b, read-out: %inhibition",98.2%
same,inhibition at 1.25 µM,"Conc. 1.25 μM, individual repeats, Fig3b, read-out: %inhibition",98.2%
same,inhibition at 1.563 µM,"Conc. 1.563 μM, individual repeats, Fig3b, read-out: %inhibition",96.2%
same,inhibition at 2 µM,"Conc. 2 μM, individual repeats, Fig3b, read-out: %inhibition",99.4%
same,inhibition at 2.5 µM,"Conc. 2.5 μM, individual repeats, Fig3b, read-out: %inhibition",99.2%
same,inhibition at 3.125 µM,"Conc. 3.125 μM, individual repeats, Fig3b, read-out: %inhibition",98.2%
same,inhibition at 5 µM,"Conc. 5 μM, individual repeats, Fig3b, read-out: %inhibition",100%
same,inhibition at 6.25 µM,"Conc. 6.25 μM, individual repeats, Fig3b, read-out: %inhibition",98.1%
same,inhibition at 10 µM,"Conc. 10 μM, individual repeats, Fig3b, read-out: %inhibition",101%
same,inhibition at 12.5 µM,"Conc. 12.5 μM, individual repeats, Fig3b, read-out: %inhibition",98.5%
same,inhibition at 20 µM,"Conc. 20 μM, individual repeats, Fig3b, read-out: %inhibition",100%
same,inhibition at 25 µM,"Conc. 25 μM, individual repeats, Fig3b, read-out: %inhibition",99.7%
same,inhibition at 50 µM,"Conc. 50 μM, individual repeats, Fig3b, read-out: %inhibition",99%
same,"mean (FP signal, FigS5)","Repeat 1, Conc. 0.0024 μM",278.3
same,"mean (FP signal, FigS5)","Repeat 1, Conc. 0.0049 μM",270.3
same,"mean (FP signal, FigS5)","Repeat 1, Conc. 0.0098 μM",252
same,"mean (FP signal, FigS5)","Repeat 1, Conc. 0.0195 μM",216.7
same,"mean (FP signal, FigS5)","Repeat 1, Conc. 0.0391 μM",168
same,"mean (FP signal, FigS5)","Repeat 1, Conc. 0.0781 μM",122
same,"mean (FP signal, FigS5)","Repeat 1, Conc. 0.1563 μM",88
same,"mean (FP signal, FigS5)","Repeat 1, Conc. 0.3125 μM",67
same,"mean (FP signal, FigS5)","Repeat 1, Conc. 0.625 μM",54.3
same,"mean (FP signal, FigS5)","Repeat 1, Conc. 1.25 μM",49
same,"mean (FP signal, FigS5)","Repeat 1, Conc. 2.5 μM",46.7
same,"mean (FP signal, FigS5)","Repeat 1, Conc. 5 μM",44.3
same,"mean (FP signal, FigS5)","Repeat 1, Conc. 10 μM",42.7
